# In patent US20210161868A1, “ANTI-INFLAMMATORY THERAPY IN ARRHYTHMOGENIC CARDIOMYOPATHY (ACM)” (Beth Israel Deaconess Medical Center, Inc., priority 2018, published 2021):
# “Also recorded” adds a separate entry of the source.
# Test system: neonatal rat ventricular myocytes (NRVMs) expressing JUP^2157del2
# Assay: In vitro cytokine assay of NRVM culture media
# Assay type: cell-based
# Conditions: Bay11-7082 5 μM, 24 hours
# Method: Primary cultures were prepared from disaggregated ventricles of 1-day-old Wistar rat pups (Charles River) as previously described.^15 Cell suspensions were pre-plated to reduce fibroblast content, placed in collagen-coated chamber slides at a density of 2.4×10^5 cells/cm^2, and grown for 4 days at 37° C. in M199 medium (GIBCO) (supplemented with penicillin, 20 U/mL; streptomycin, 20 μg/mL; 10% neonatal calf serum and 0.1 mM bromodeoxyuridine) in a humidified atmosphere containing 1% CO2. Epinephrine (0.01 μmol/mL) was added during the first 24 hours of culture. At 24 hours post-seeding, cultures were transfected with an adenoviral construct expressing plakoglobin (JUP) with the 2157del2 mutation, as previously reported.^15 At 24 hours post-transfection, cultures were treated with Bay11-7082 (Sigma, […]) for an additional 24 hours. […]
# Culture media from cells expressing 2157del2 plakoglobin in the presence or absence of Bay11-7082 (5 μM, 24 hours) were collected after 96 hours in culture, mixed with a cocktail of biotinylated detection antibodies, and incubated with nitrocellulose membranes spotted in duplicate with control and capture antibodies (R&D Systems). […] The cytokine array specifically detected rat cytokines whereas cells were grown in media containing neonatal bovine serum. […]
structure (smiles),measurement,value
Cc1ccc(S(=O)(=O)/C=C/C#N)cc1 [Bay 11-7082],accumulation of cytokines and chemoattractants in culture media,reduces; also recorded: greatly reduced
